In publication PMC8151276, “An Integrated Approach toward NanoBRET Tracers for Analysis of GPCR Ligand Engagement” (Molecules, 2021):

Target: T1, GRM7 (Homo sapiens, UniProt Q14831)
T1 construct: purchased Promega (in-house HiBiT-GPCR construct library, NanoBRET)
Experiment: NanoBRET screen HiBiT-GRM7 in HEK293
Type: binding
Description: Each tracer candidate was screened across the entire library of HiBiT-GPCR constructs using NanoBRET as the detection modality. As depicted in Figure 4A, the specificity of interactions was evaluated through decrease in BRET due to competitive displacement of a bound tracer by excess parental compound. Each tracer was analyzed for binding to each HiBiT-GPCR fusion in the absence and in the presence of competing parental compound. Briefly, HEK293 cells were transfected with HiBiT-GPCR constructs diluted into promoterless DNA to reduce expression and maximize translocation to the cell surface. Each tracer candidate was then screened at concentrations of 1 μM and 0.1 μM across cells expressing these fusions. Cells were treated for 1.5 h with tracer either alone or in the presence of 20 μM competing parental compound (i.e., control). BRET was measured upon addition of purified LgBiT and subsequent complementation with HiBiT genetically fused to a GPCR. The specificity of interactions was assessed through a decrease in BRET signal due to competitive displacement of the bound tracer. To further gauge the robustness of these interactions, the fold response over the control (i.e., BRETtracer/BRETcontrol) was calculated. We chose a 1.5-fold response, which translates to ≥7-fold signal over noise as the minimal threshold required to score an interaction as positive.
HiBiT-GPCR DNA constructs were diluted in 10 mM Tris pH 8 to a final concentration of 0.01 μg/μL, arrayed in 96-well plates and stored at −20 °C. For transfection, HEK293 cells were suspended in Opti-MEM (without phenol red) supplemented with 2% fetal bovine serum (Seradigm) and 100 units/mL penicillin–streptomycin (Gibco) at a final concentration of 220,000 cells/mL and dispensed into white 96-well plates at 90 μL/well. Subsequent transfections and screens were carried using an Agilent Bravo Automated Liquid Handling Platform. First, the 96-well HiBiT DNA arrays were diluted 25-fold in Opti-MEM (without serum or phenol red) to a final concentration of 0.0004 μg/μL and 20 μL of the diluted DNAs were transferred into new 96-well plates. Next, promoterless carrier DNA (1 μg/μL) was diluted 25-fold (0.04 μg/μL) and then dispensed into the diluted arrays at 20 μL/well. Following brief mixing, Viafect transfection reagent (Promega) diluted 16-fold into Opti-MEM was dispensed into the plates at 40 μL/well. After mixing by pipetting, plates were incubated for 10 min on the pipetting station deck. The DNA-transfection reagent complexes were then added to plates containing cells. To facilitate the screen, 10 μL of DNA-transfection reagent complexes were added in duplicates to the top 4 and bottom 4 rows, resulting in two identical 48-well arrays per plate. Plates with transfected cells were incubated for 18–20 h at 37 °C/5% CO2. A screen of each tracer across the entire library using two different concentrations requires duplicate plates of transfected cells. Depending on the number of tracers being screened, transfections can be scaled up using the same ratios. The next day, for each tracer, four 20× screening solutions in tracer dilution buffer (Promega) were prepared: two duplicates at final concentration of 20 μM and two duplicates at a final concentration of 2 μM. […] The four resulting solutions were diluted 4-fold in Opti-MEM without serum or phenol red to generate 5× solutions (5 µM and 0.5 µM tracer +/− 100 μM competing compound). To screen the library, a BioTek MultiFlo FX liquid dispenser was used to dispense 22.5 µL of tracer solution to the top 4 rows and 22.5 µL tracer + competing compound solution to the 4 bottom rows. Plates were briefly mixed on an orbital shaker and incubated for 1.5 h at room temperature. […] Plates were briefly mixed on an orbital shaker and incubated for 15 min to allow complementation.

T1 sequence (Q14831 35-915): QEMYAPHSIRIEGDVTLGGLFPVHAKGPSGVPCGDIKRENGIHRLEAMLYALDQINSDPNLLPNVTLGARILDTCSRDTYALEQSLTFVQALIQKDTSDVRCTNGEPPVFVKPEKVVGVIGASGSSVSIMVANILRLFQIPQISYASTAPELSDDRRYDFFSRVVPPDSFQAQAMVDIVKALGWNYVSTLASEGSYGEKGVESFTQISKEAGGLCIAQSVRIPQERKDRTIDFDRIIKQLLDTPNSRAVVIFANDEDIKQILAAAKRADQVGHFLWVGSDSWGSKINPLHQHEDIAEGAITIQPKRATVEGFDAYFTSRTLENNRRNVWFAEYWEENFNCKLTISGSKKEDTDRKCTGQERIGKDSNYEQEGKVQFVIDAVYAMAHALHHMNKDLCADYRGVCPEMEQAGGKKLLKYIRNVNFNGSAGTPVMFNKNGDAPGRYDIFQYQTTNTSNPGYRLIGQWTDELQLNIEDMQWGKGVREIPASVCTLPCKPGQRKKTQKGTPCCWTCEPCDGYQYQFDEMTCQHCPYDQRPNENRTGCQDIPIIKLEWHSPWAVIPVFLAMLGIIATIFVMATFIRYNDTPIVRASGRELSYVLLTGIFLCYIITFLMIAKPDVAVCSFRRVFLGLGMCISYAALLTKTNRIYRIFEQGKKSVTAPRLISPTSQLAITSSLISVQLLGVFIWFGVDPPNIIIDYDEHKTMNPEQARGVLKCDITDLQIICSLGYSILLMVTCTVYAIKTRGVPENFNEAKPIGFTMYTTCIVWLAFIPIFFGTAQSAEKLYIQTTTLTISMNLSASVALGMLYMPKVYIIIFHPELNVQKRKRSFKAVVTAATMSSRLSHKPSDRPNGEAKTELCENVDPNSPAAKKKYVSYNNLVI

Structure (SMILES)	NanoBRET Fold Response (GRM7, tracer 0.1μM)	NanoBRET Fold Response (GRM7, tracer 1μM)	also measured
CCOC(=O)c1cc(C#N)c(N2CCC(C(=O)NS(=O)(=O)Cc3ccccc3/C=C/C(=O)NCCNC(=O)CCc3ccc4n3[B-](F)(F)[N+]3=C(c5ccc[nH]5)C=CC3=C4)CC2)nc1C [AZD1283-1-NB590]	–	–	NanoBRET Fold Response (GRM7, 0.1μM): 0.98; NanoBRET Fold Response (GRM7, 1μM): 1.05
N#CN=C(NCCCOc1cccc(CN2CCCCC2)c1)NCCNC(=O)CCOCCOCCOCCOCCNC(=O)CCc1ccc2n1[B-](F)(F)[N+]1=C(c3ccc[nH]3)C=CC1=C2 [Aminopotentidine-2-NB590]	0.98	1.05	–
CN(C)CCC=C1c2ccccc2CCc2ccc(C(=O)NCCNC(=O)CCOCCOCCOCCOCCNC(=O)CCc3ccc4n3[B-](F)(F)[N+]3=C(c5ccc[nH]5)C=CC3=C4)cc21 [Amitriptyline-b-2-NB590]	1.09	1.00	–
COc1ccc2c(n1)c(CCNC(C)=O)cn2CCNC(=O)CCc1ccc2n1[B-](F)(F)[N+]1=C(c3ccc[nH]3)C=CC1=C2 [Azamelatonin-1-NB590]	–	–	NanoBRET Fold Response (0.1μM tracer): 1.10; NanoBRET Fold Response (1μM tracer): 1.16
COc1ccc2[nH]c(-c3ccc(CNC(=O)CCOCCOCCOCCOCCNC(=O)CCc4ccc5n4[B-](F)(F)[N+]4=C(c6ccc[nH]6)C=CC4=C5)cc3)c(CCNC(C)=O)c2n1 [AzomelatoninICO9-2-NB590]	–	–	NanoBRET Fold Response (0.1μM tracer): 1.03; NanoBRET Fold Response (1μM tracer): 1.08
O=C(CCOCCOCCOCCOCCNC(=O)CCc1ccc2n1[B-](F)(F)[N+]1=C(c3ccc[nH]3)C=CC1=C2)NCCCN1CCN(C2=Nc3cc(Cl)ccc3Nc3ccccc32)CC1 [Clozapine-a-2-NB590]	–	–	NanoBRET Fold Response (GRM7, 0.1μM tracer): 0.95; NanoBRET Fold Response (GRM7, 1μM tracer): 0.92
CN1CCN(C2=Nc3cc(Cl)ccc3Nc3ccc(CNC(=O)CCOCCOCCOCCOCCNC(=O)CCc4ccc5n4[B-](F)(F)[N+]4=C(c6ccc[nH]6)C=CC4=C5)cc32)CC1 [Clozapine-b-2-NB590]	–	–	NanoBRET Fold Response (GRM7, 0.1μM tracer): 1.04; NanoBRET Fold Response (GRM7, 1μM tracer): 0.93
CN1CCN(C2=Nc3cc(Cl)ccc3N(CC(=O)NCCOCCOCCOCCOCCNC(=O)CCc3ccc4n3[B-](F)(F)[N+]3=C(c5ccc[nH]5)C=CC3=C4)c3ccccc32)CC1 [Clozapine-c-2-NB590]	–	–	NanoBRET Fold Response (GRM7, 0.1μM tracer): 1.00; NanoBRET Fold Response (GRM7, 1μM tracer): 1.03
O=C(CCOCCOCCOCCOCCNC(=O)CCc1ccc2n1[B-](F)(F)[N+]1=C(c3ccc[nH]3)C=CC1=C2)NCCCN1CCN(C2=Nc3ccccc3Oc3ccc(Cl)cc32)CC1 [Loxapine-a-2-NB590]	1.07	1.12	–
COc1ccccc1N1CCN(CCCCN2C(=O)c3ccc(CNC(=O)CCOCCOCCOCCOCCNC(=O)CCc4ccc5n4[B-](F)(F)[N+]4=C(c6ccc[nH]6)C=CC4=C5)cc3C2=O)CC1 [NAN-190-2-NB590]	1.00	–	–
COc1ccccc1N1CCN(CCCCN2C(=O)c3ccc(CNC(=O)CCOCCNC(=O)c4ccc(CNC(=O)CCc5ccc6n5[B-](F)(F)[N+]5=C(c7ccc[nH]7)C=CC5=C6)cc4)cc3C2=O)CC1 [NAN-190-3-NB590]	1.01	0.95	–
O=C(CCc1ccc2n1[B-](F)(F)[N+]1=C(c3ccc[nH]3)C=CC1=C2)NCc1ccc(C(=O)NCCOCCC(=O)N[C@@H]2CC[C@@]3(O)[C@H]4Cc5ccc(O)c6c5[C@@]3(CCN4CC3CC3)[C@H]2O6)cc1 [Naltrexone-3-NB590]	1.01	0.93	–
Cc1cc2c(s1)Nc1ccccc1N=C2N1CCN(CCCNC(=O)CCOCCOCCOCCOCCNC(=O)CCc2ccc3n2[B-](F)(F)[N+]2=C(c4ccc[nH]4)C=CC2=C3)CC1 [Olanzapine-a-2-NB590]	1.00	1.02	–
O=C(CCc1ccc2n1[B-](F)(F)[N+]1=C(c3ccc[nH]3)C=CC1=C2)NCc1ccc(C(=O)NCCOCCOCCNCC(O)COc2cccc3ccccc23)cc1 (stereo not shown) [Propranolol-3-NB590]	–	–	NanoBRET Fold Response (GRM7, 0.1μM): 1.00; NanoBRET Fold Response (GRM7, 1μM): 0.97
O=C(CCc1ccc2n1[B-](F)(F)[N+]1=C(c3ccc[nH]3)C=CC1=C2)NCCOCCOCCNC(=O)OCCOCCN1CCN(C2=Nc3ccccc3Sc3ccccc32)CC1 [Quetiapine-a-2-NB590]	1.03	1.05	–
Cc1nc2n(c(=O)c1CCN1CCC(c3noc4cc(F)ccc34)CC1)CCCC2OC(=O)NCCOCCOCCOCCOCCNC(=O)CCc1ccc2n1[B-](F)(F)[N+]1=C(c3ccc[nH]3)C=CC1=C2 (stereo not shown) [Risperidone-2-NB590]	1.00	1.00	–
CC(C)N(CC[C@H](c1ccccc1)c1cc(CCNC(=O)CCOCCOCCOCCOCCNC(=O)CCc2ccc3n2[B-](F)(F)[N+]2=C(c4ccc[nH]4)C=CC2=C3)ccc1O)C(C)C [Tolterodine-2-NB590]	1.18	0.89	–
CC(C)N(CC[C@H](c1ccccc1)c1cc(CCNC(=O)c2ccc(CNC(=O)CCc3ccc4n3[B-](F)(F)[N+]3=C(c5ccc[nH]5)C=CC3=C4)cc2)ccc1O)C(C)C [Tolterodine-BZ-NB590]	0.99	1.02	–
CCCn1c(=O)c2[nH]c(-c3ccc(OCC(=O)NCCNC(=O)CCOCCNC(=O)c4ccc(CNC(=O)CCc5ccc6n5[B-](F)(F)[N+]5=C(c7ccc[nH]7)C=CC5=C6)cc4)cc3)nc2n(CCC)c1=O [XAC-3-NB590]	1.03	1.07	–
